Data from patent US8653237B2, “Peptide analogues” (MannKind Corporation, priority 2005, dated 2014).
Each block holds one compound with its values, some of them ahead of it. Square brackets hold non-standard residues; d marks the D form. Peptide text beside a SMILES is read from it. Cha = N[C@@H](CC1CCCCC1)C(=O)O

Legend:
HLA-A*0201 [1] = target: T1, HLA-A*0201 (Homo sapiens, UniProt P04439, D140Y/D185E/D98H/E176V/E277Q/G131W/G231S/I119V/I121R/I166T/I218V/L300P/L318F/N151K/N90K/P208A/P217A/Q86G/Q94H/R138H/R169H/T345S); test: iTopia affinity assay (ED50); assay type: binding
Excerpt: Avidin-coated microtiter plates containing class I monomer loaded with a so-called placeholder peptide were used to evaluate peptide binding, affinity and off-rate. The monomer-coated plates were supplied as part of the iTopia Epitope Discovery System Kit (Beckman Coulter, Inc., San Diego, Calif., USA). Assay buffers, anti-MHC-FITC mAb and beta2-microglobulin and control peptides were also supplied with the kits.
Plates were read on the fluorometer. Sigmoidal dose response curves were generated using Prism software.

[2] = tested on: T cell line specific for the native epitope PRAME425-433; test: Cross-reactivity: IFN-gamma secretion from T cell line specific for native PRAME425-433; assay type: cell-based, HHD transgenic mice; conditions: analog peptide at approximately 0.304 (so in the source); normalized to native peptide
Experimental: At 7 days after the last boost, the mice were sacrificed and a suspension of splenocytes prepared at 5×10^6 […] cells/ml in complete HL-1 medium. Cells were incubated with different concentrations of peptide for 48 hours in flat-bottomed 96-well plates (200 μl/well) and for an additional 24 hours with rIL-2 at 10 U/ml added to the wells. The supernatant was harvested and the concentration of IFN-gamma assessed by standard methods such as ELISA.
The analogs listed in FIGS. 26-28 were tested for various properties such as improved affinity and stability of binding, cross-reactivity with the native epitope, and immunogenicity as follows in Examples 40-48. […] The observed affinities of the analogs are reported as % binding (compared to the positive control) and ED50, and stability of binding as half time of dissociation. Cross reactivity with the native epitope was assessed by using the analog peptides to stimulate IFN-gamma secretion from a T cell line specific for the native epitope, essentially as described in Example 6. The data shown in FIGS. 26-28 were generated by stimulating with analog peptide at approximately 0.304. […] In some cases, the reported values are the average of two determinations.

HLA-A*0201 [3] = target: T1, HLA-A*0201; test: Peptide binding using T2 cells (affinity to HLA-A*0201); parameters: endogenous in cells; host or cells: T2 cells; conditions: peptide concentration giving 50% of the saturation signal on T2 cells
[4] = tested on: T cell lines against natural epitope SSX-241-49; test: Cross-reactivity and functional avidity: IFN-gamma production by T cell lines raised against natural SSX-2 41-49; assay type: cell-based, HHD transgenic mice; conditions: T cells raised against native SSX-2 41-49 stimulated with analog, native = 1, lower = more active

Binding affinity (ED50) relative to native peptide (in words) (HLA-A*0201 [1]): reduced by almost 6-fold
Compound: Lys P1 analog: PRAME425-433 analog with Lys substituted for the Ser at the P1 position (KLLQHLIGL; UniProt P78395 425-433, looked up, variant S425K)
IFN-γ elicited, relative to native peptide [2]: 40%

Half-maximal Binding (HLA-A*0201 [3]): N/B
Compound: CC[C@H](C)[C@H](NC(=O)[C@H](CCCCN)NC(=O)[C@H](CCC(=O)O)NC(=O)[C@H](CO)NC(=O)[C@H](C)NC(=O)[C@@H](N)CC1CCCCC1)C(=O)N[C@@H](Cc1ccccc1)C(=O)N[C@@H](Cc1ccc(O)cc1)C(=O)N[C@H](C(=O)O)C(C)C [SSX2 41-49 (K41(Cha))] (H-[Cha]ASEKIFYV-OH)

Half-maximal Binding (HLA-A*0201 [3]): N/B
Compound: CC[C@H](C)[C@H](NC(=O)[C@H](CCCCN)NC(=O)[C@H](CCC(=O)O)NC(=O)[C@H](CO)NC(=O)[C@H](Cc1cccc2ccccc12)NC(=O)[C@@H](N)CCCCN)C(=O)N[C@@H](Cc1ccccc1)C(=O)N[C@@H](Cc1ccc(O)cc1)C(=O)N[C@H](C(=O)O)C(C)C [SSX2 41-49 (A42(Nal-1)), KNal-1SEKIFYV]

Compound: CC[C@H](C)[C@H](NC(=O)[C@H](CCCCN)NC(=O)[C@H](CCC(=O)O)NC(=O)[C@H](CO)NC(=O)[C@@H](NC(=O)[C@@H](N)Cc1ccccc1)C(C)C)C(=O)N[C@@H](Cc1ccccc1)C(=O)N[C@@H](Cc1ccc(O)cc1)C(=O)N(C)[C@H](C(=O)O)C(C)C [SSX2 41-49 (K41F, A42V, V49MeVal)]
Cross-reactivity and fct avidity (native to analogs) [4]: 10
